Results as given in US10761087B2, “Choroidal neovascularization suppressor or drusen formation suppressor, and method for assessing or screening for same” (Link Genomics, Inc., priority 2015, dated 2020).
“Also recorded” adds a separate entry of the source. Read-outs that look alike come from different tables or passages of the source.

Legend:
[1] = tested on: EMT markers (mesenchymal markers, ECM) in RPE cells (ARPE-19); assay: Change in expression of EMT markers (real-time PCR) in EMT-induced RPE cells; assay type: cell-based, human
Experimental: RPE cells (ARPE-19) were seeded on a plate, and incubated for 5 days at 37° C. For the RPE cells, EMT was induced in the conditions described in Test example 1-1, and respective compounds (oxaprozin, epalrestat, zafirlukast, amlexanox, zaltoprofen) were added simultaneously, and the cells were collected after 48 hours from induction of EMT. As a control, a sample to which a compound to be assessed (test drug) is not added was used. The collected cells were washed with PBS, and 350 μL of an RLT buffer was added to prepare a lysate for RNA extraction. The respective compounds were used in the following concentrations. Oxaprozin: 300 μM, epalrestat: 30 μM, zafirlukast: 3 μM, amlexanox: 30 μM, zaltoprofen: 30 μM. Total RNA was extracted from the lysate using an RNeasy Micro kit (QIAGEN, #74004), and from 2 μg of the obtained RNA, cDNA was prepared using a SuperScript III First-Strand Synthesis SuperMix for qRT-PCR (Invitrogen, #11752-250). Using 50 ng of the obtained cDNA as a template, a real-time PCR (ABI Prism 7500 Sequence Detection System) was conducted according to the manufacturer's protocol, and expression of mRNA of each gene was quantified. Specific primers for respective genes were purchased from Invitrogen. Ct (Threshold Cycle) value of each gene was calculated as a percentage to a non-treated sample after normalization by endogenous control.
Five compounds (flufenamic acid aluminum (addition concentration: 28 μM (Cmax)), mefenamic acid (addition concentration: 39 μm (Cmax)), sulindac (addition concentration: 100 μM), tiaprofenic acid (addition concentration: 1000 μM), and seratrodast (addition concentration: 31 μM (Cmax))) were assessed for change in expression of EMT markers in the same manner as in Test example 2-1. The results are shown in FIG. 8 to FIG. 12, respectively.
(§1) RPE cells (ARPE-19) were seeded on a plate, and incubated for 5 days at 37° C. […] Each compound was added in a concentration of Cmax, ½ of Cmax or ¼ of Cmax. As a control, a sample to which a compound to be assessed (test drug) is not added was used. The collected cells were washed with PBS, and 350 μL of an RLT buffer was added to prepare a lysate for RNA extraction. Total RNA was extracted from the lysate using an RNeasy Micro kit (QIAGEN, #74004), and from 2 μg of the obtained RNA, cDNA was prepared using a SuperScript III First-Strand Synthesis SuperMix for qRT-PCR (Invitrogen, #11752-250). Using 50 ng of the obtained cDNA as a template, a real-time PCR (ABI Prism 7500 Sequence Detection System) was conducted according to the manufacturer's protocol, and expression of mRNA of each gene was quantified. Specific primers for respective genes were purchased from Invitrogen. Ct (Threshold Cycle) value of each gene was calculated as a percentage to a non-treated sample after normalization by endogenous control. For each result, a significant test (Student t test) was conducted, and when p<0.05, the result was marked with “*”, and when p<0.01, the result was marked with “**”.
RPE cells (ARPE-19) were seeded on a plate, and incubated for 5 days at 37° C. For the RPE cells, EMT was induced in the conditions described in Test example 5-1, and the five representative compounds (oxaprozin, epalrestat, zafirlukast, amlexanox, zaltoprofen) were added simultaneously, and the cells were collected after 48 hours from induction of EMT. As a control, a sample to which a compound to be assessed (test drug) is not added was used. The collected cells were washed with PBS, and 350 μL of an RLT buffer was added to prepare a lysate for RNA extraction. Total RNA was extracted from the lysate using an RNeasy Micro kit (QIAGEN, # 74004), and from 2 μg of the obtained RNA, cDNA was prepared using a SuperScript III First-Strand Synthesis SuperMix for qRT-PCR (Invitrogen, # 11752-250). […]

[2] = tested on: VEGF; assay: Change in expression of VEGF mRNA (real-time PCR) in EMT-induced RPE cells; assay type: cell-based, human; settings: EMT-induced ARPE-19, 48 hours, compound at Cmax, ½ of Cmax or ¼ of Cmax
Experimental: as §1
The results are shown in FIG. 16 or FIG. 17, respectively.
The VEGF suppressive effect was assessed using the cell model as described above in the same manner as in Test example 2-3. The results are shown in FIG. 18 to FIG. 20, respectively.

[3] = tested on: RPE cells (ARPE-19); assay: Focus (drusen-like structure) formation suppression in EMT induction model of RPE cells; assay type: cell-based, human; settings: Homo sapiens, RPE; Table 2; same manner as Test example 6-1; read-out: IC50 (Focus formation suppressing rate, EMT suppressive effect)
Experimental: RPE cells (ARPE-19) were seeded on a plate, and incubated for 5 days at 37° C. […] As a control of EMT induction, a sample to which a compound to be assessed (test drug) is not added was used. After 48 hours from EMT induction, the cells were fixed by treating with a 4% paraformaldehyde solution for 30 minutes at room temperature, and then washed three times with PBS. The cells were treated with a 0.2% Triton-X/PBS solution for 5 minutes, and washed three times with PBS. […] The fluorescent-stained cells were imaged by using an Image Express Micro (available from Molecular Devices), and digitized by using a MetaXpress2.0 (available from Molecular Devices). By analyzing the degree of formation of Focus (Focus level) from the numerical data, a Focus formation suppressing rate was calculated according to the following Formula 1 on the basis of the numerical value at the time of no addition of a compound, and the EMT suppressive effect in each compound was verified. The degree of formation of Focus (Focus level) was determined according to the number and the volume of Focus as indexes.
IC50 in the table was calculated using the following Formula 2.
A: Higher concentration sandwiching 50%
B: Lower concentration sandwiching 50%
C: Inhibition rate at lower concentration sandwiching 50%
D: Inhibition rate at higher concentration sandwiching 50%
RPE cells (ARPE-19) were seeded on a plate, and incubated for 5 days at 37° C. […] As a control of EMT induction, a sample to which a compound to be assessed (test drug) is not added was used. The cells after observation were fixed by treating with a 4% paraformaldehyde solution for 30 minutes at room temperature, and then washed three times with PBS. The cells were treated with a 0.2% Triton-X/PBS solution for 5 minutes, and washed three times with PBS. […] The fluorescent-stained cells were imaged by using an Image Express Micro (available from Molecular Devices), and digitized by using a MetaXpress2.0 (available from Molecular Devices). By analyzing the degree of formation of Focus from the numerical data, a Focus formation suppressing rate was calculated on the basis of the case without addition of a compound and the case without EMT induction, and the EMT suppressive effect in each compound was verified. […] After washing three times with methanol, the cells were dried for 3 hours at room temperature. The dried cells were observed under a microscope.

[4] = cited from earlier work

In the case of `O=C(O)c1ccccc1Nc1cccc(C(F)(F)F)c1` [flufenamic acid aluminum], the “Enhancement of expression of Fibronectin, Snail and vimentin (mesenchymal markers)” value ([1]; EMT-induced ARPE-19, 48 hours, compound at Cmax, ½ of Cmax or ¼ of Cmax) is reported as “suppressed enhancement of expression of these in a concentration dependent manner”, the “Expression of EMT markers at the time of EMT induction (FIG. 8 to FIG. 12)” value ([1]; flufenamic acid aluminum 28 μM, mefenamic acid 39 μm, sulindac 100 μM, tiaprofenic acid 1000 μM, seratrodast 31 μM) is reported as “significantly suppress expression of EMT markers at the time of EMT induction; also recorded: lower expression of EMT markers at the time of EMT induction” and the “Enhancement of VEGF mRNA expression by EMT induction” value [2] is reported as “suppress enhancement of mRNA expression of VEGF”. The “Enhancement of VEGF mRNA expression by EMT induction” value ([2]; listed as Flufenamic acid aluminum) was “suppressed enhancement of VEGF expression in a concentration dependent manner”, the IC50 [3] was 4.4 µM and the Cmax ([4]; Pharmaceutical Interview Form, single-dose administration, read-out: Cmax) was 27.9 µM. The Cmax ([4]; quoted in Test examples 2-3, 2-4, 2-5, read-out: Cmax (as quoted in the VEGF test examples)) was 27.9 µM.
